pIC50: −log10 of the molar value.
How the values were obtained:
[1] = system: RXF 393 (Renal Cancer); experiment: NCI60 screen (SRB); type: cell-based, human; conditions: 48 h
[2] = system: BT-549 (Breast Cancer); experiment: NCI60 screen (SRB); type: cell-based, human; conditions: for GI50: five-dose
[3] = system: HOP-92 (Non-Small Cell Lung Cancer); experiment: NCI60 screen (SRB); type: cell-based, human; conditions: 48 h
[4] = system: SNB-75 (CNS Cancer); experiment: NCI60 screen (SRB); type: cell-based, human; conditions: 48 h
[5] = system: SK-MEL-2 (Melanoma); experiment: NCI60 screen (SRB); type: cell-based, human; conditions: 48 h
[6] = system: MDA-MB-468 (Breast Cancer); experiment: NCI60 screen (SRB); type: cell-based, human; conditions: 48 h
[7] = system: SW-620 (Colon Cancer); experiment: NCI60 screen (SRB); type: cell-based, human; conditions: for GI50: five-dose
[8] = system: CCRF-CEM (Leukemia); experiment: NCI60 screen (SRB); type: cell-based, human; conditions: 48 h
[9] = system: OVCAR-8 (Ovarian Cancer); experiment: NCI60 screen (SRB); type: cell-based, human; conditions: 48 h
[10] = system: NCI/ADR-RES (Ovarian Cancer); experiment: NCI60 screen (SRB); type: cell-based, human; conditions: 48 h
[11] = Cytotoxicity in MCF-10A cells (alamarBlue); type: cell-based, human; conditions: human, MCF-10A non-tumorigenic mammary epithelial cells
Protocol: (§1) Figure 9 Effect of compounds 22a (A) and 22b (B) on the cell viability of non-tumorigenic MCF-10A human mammary epithelial cells at 24, 48, and 72 h. Cells were treated with the compounds 22a and 22b at concentrations of 10 μM, 1 μM, 0.5 μM, and 0.4 μM for 24, 48, or 72 h. […] Cell viability was expressed as a percentage of vehicle control (ethanol 1% (v/v)) and was determined by an alamarBlue assay (average ± SEM of three independent experiments). Two-way ANOVA (Bonferroni post-test) was used to test for statistical significance (*, p < 0.05; **, p < 0.01; ***, p < 0.001).
(§2) HL-60 cells were suspension cells and the seeding density for the viability assay was 25,000 cells/mL. MCF-7 cells (adherent) were cultured in Minimum Essential Media (MEM) with GlutaMAX™-I, supplemented with 1% (v/v) non-essential amino acids, 10% (v/v) fetal bovine serum (FBS), purchased from BD Biosciences (Edmund Halley Road, Oxford, UK), and 1% (v/v) penicillin/streptomycin 5000 U/mL. The MCF-7 cells used in the screening of the compounds during these experiments were mycoplasma-free. The seeding density of MCF-7 in the viability assay was 25,000 cells/mL and 50,000 cells/mL in the FACS assay. Normal breast cells (MCF-10A) (adherent) were cultured in Dulbecco’s Modified Eagle Medium: Nutrient Mixture F-12 (DMEM/F12; Gibco) supplemented with 5% horse serum (Invitrogen, Waltham, MA, USA), 20 ng/mL epidermal growth factor (Merck Millipore, Burlington, MA, USA), 0.5 μg/mL hydrocortisone (Sigma, Kanagawa, Japan), 100 ng/mL cholera toxin (Sigma), 10 μg/mL insulin (Sigma), and penicillin/streptomycin 5000 U/mL (1%) (Gibco, Waltham, MA, USA). […] MDA-MB-231 cells were cultured in Dulbecco’s Modified Eagle Medium, which was supplemented with 10% (v/v) fetal bovine serum (FBS) and 1% (v/v) penicillin/streptomycin 5000 U/mL. When not in use, all cells were kept in liquid nitrogen and frozen in a freezing media made of 90% FBS and 10% DMSO. All cells were grown in an atmosphere of 5% CO2/95% air in T75 culture flasks. The media was changed every 2–3 days and media was always prewarmed to 37 °C. All were sub-cultured every 3–4 days by trypsinization using TrypLE™ Express enzyme when confluence was reached to allow growth, prevent excessive cell death, and minimize the risk of infections derived by over-confluence. For the cell viability assay, the number of cells per milliliter was 25,000 cells/mL while the FACS assay utilized 50,000 cells/mL. Cells were maintained at 37 °C in 5% CO2 in a humidified incubator.
(§3) The biochemical assays were performed in triplicate and on at least three independent occasions to facilitate the determination of mean values. For the viability assay, cells were grown until 80% confluent. Adherent cells such as MCF-7, MDA-MB-231, and MCF-10A were trypsinized to detach them from the flask, counted as previously described, and seeded in 96 well plates with a seeding density of 25,000 cells /mL (200 µL of suspension in each well so that the final number of cells per well was 5000) and 1 × 10^4 cells/well seeding density for suspension HL-60 cells. Adherent cells were incubated for 24 h after being seeded in the 96 well plate and treated on the following day, while suspension cells were treated on the same day of the seeding. In both cases, the incubation time after the treatment with the drug was 72 h. After 68 h incubation, the AlamarBlue was added (20 µL in each well) and the incubation time was completed. After 72 h, the change in color was measured by spectrofluorimetry at an excitation wavelength of 544 nm and emission wavelength of 590 nm. AlamarBlue is a cell viability indicator containing a compound called resazurin. AlamarBlue is water soluble, stable in culture media, non-toxic, and is permeable through the cell membrane. When resazurin (blue) enters the live cells, it is reduced to the fluorescent molecule resorufin (pink).

[12] = system: MCF-10A human mammary epithelial cells; experiment: Cytotoxicity in MCF-10A cells (alamarBlue); type: cell-based; conditions: 10 μM, 24 h
Protocol: as §1, §2, §3

[13] = system: K-562 (Leukemia); experiment: NCI60 screen (SRB); type: cell-based, human; conditions: 48 h
[14] = system: A549/ATCC (Non-Small Cell Lung Cancer); experiment: NCI60 screen (SRB); type: cell-based, human; conditions: 48 h
[15] = system: HCT-15 (Colon Cancer); experiment: NCI60 screen (SRB); type: cell-based, human; conditions: 48 h
[16] = system: OVCAR-5 (Ovarian Cancer); experiment: NCI60 screen (SRB); type: cell-based, human; conditions: 48 h
[17] = system: CAKI-1 (Renal Cancer); experiment: NCI60 screen (SRB); type: cell-based, human; conditions: 48 h
[18] = Homo sapiens, five-dose, read-out: IC50 (cell marked * in GI50 column)

Q: Which results are given for `COc1ccc(/C=C/C(c2cc(OC)c(OC)c(OC)c2)n2cncn2)cc1O` (stereo not shown) [Compound 22b, (E)-5-(3-(1H-1,2,4-Triazol-1-yl)-3-(3,4,5-trimethoxyphenyl)prop-1-en-1-yl)-2-methoxyphenol]?
A: pIC50 [1, 18]: < 4.00; growth percent ([1]; one dose 10 µM): −16.94%; GI50 ([2]; Homo sapiens, BT-549, 48 h): 71 nM; GI50 ([2]; 48 h): 71.2 nM; growth percent ([2]; one dose 10 µM, 48 h): 36.59%; GI50 ([3]; Homo sapiens, five-dose): 67000 nM; growth percent ([3]; one dose 10 µM): 47.98%; pIC50 [4, 18]: < 4.00; growth percent ([4]; one dose 10 µM): 40.99%; GI50 ([5]; Homo sapiens, five-dose): 43.8 nM; growth percent ([5]; one dose 10 µM): 18.23%; pIC50 [6, 18]: < 4.00; growth percent ([6]; one dose 10 µM): 8.27%; GI50 ([7]; Homo sapiens, SW-620, 48 h): 39 nM; GI50 ([7]; 48 h): 39.4 nM; growth percent ([7]; one dose 10 µM, 48 h): 27.62%; GI50 ([8]; Homo sapiens, five-dose): 32 nM; growth percent ([8]; one dose 10 µM): 6.31%; IC50 ([9]; Homo sapiens, five-dose, read-out: IC50 (cell marked * in GI50 column) (converted)): 3630 nM; growth percent ([9]; one dose 10 µM): 15.99%; pIC50 [10, 18]: 5.28; growth percent ([10]; one dose 10 µM): 10.82%; viability at 72 h, 0.4 µM ([11]; 0.4 μM, 72 h): > 80%; viability at 72 h, 0.5 µM ([11]; 0.5 μM, 72 h, read-out: cell viability): 80%; viability at 24 h, 1 µM ([11]; 1 μM, 24 h, read-out: cell viability): 100%; viability at 48 h, 1 µM ([11]; 1 μM, 48 h, read-out: viable cells): > 80%; viability at 72 h, 1 µM ([11]; 1 μM, 72 h, read-out: cell viability): 55%; viability at 48 h, 10 µM ([11]; 10 μM, 48 h, read-out: viable cells): ~30%; viability at 72 h, 10 µM ([11]; 10 μM, 72 h, read-out: cell viability): 24%; cell death [12]: approximately 50%; GI50 ([13]; Homo sapiens, K562, five-dose): 32 nM; growth percent ([13]; one dose 10 µM): 8.05%; GI50 ([14]; Homo sapiens, five-dose): 4560 nM; growth percent ([14]; one dose 10 µM): 40.13%; GI50 ([15]; Homo sapiens, five-dose): 50.8 nM; growth percent ([15]; one dose 10 µM): 16.53%; GI50 ([16]; Homo sapiens, five-dose): 4480 nM; growth percent ([16]; one dose 10 µM): 86.55%; GI50 ([17]; Homo sapiens, five-dose): 2830 nM; growth percent ([17]; one dose 10 µM): 34.50%

From article PMC11769294, “(E)-1-(3-(3-Hydroxy-4-Methoxyphenyl)-1-(3,4,5-Trimethoxyphenyl)allyl)-1H-1,2,4-Triazole and Related Compounds: Their Synthesis and Biological Evaluation as Novel Antimitotic Agents Targeting Breast Cancer” (Pharmaceuticals, 2025)
